From patent EP0705259B1, “PHENYRROLE DERIVATIVES AND THEIR USE AS DOPAMINE D3 ANTAGONISTS” (SMITHKLINE BEECHAM PLC, priority 1993, dated 1995)
Where a name gives a salt, the structure may show the parent alone.

Each compound was assayed against T1, human D3 dopamine receptors (Homo sapiens, UniProt P35462) (assay: biochemical). Details: human D3 receptor; CHO cell membranes, 0.1 nM [125I] iodosulpride, 30 min at 37°C.
T1 construct: expressed in transfected cells; host or cells: CHO cells (crude cell membranes)
T1 sequence (P35462 whole entry): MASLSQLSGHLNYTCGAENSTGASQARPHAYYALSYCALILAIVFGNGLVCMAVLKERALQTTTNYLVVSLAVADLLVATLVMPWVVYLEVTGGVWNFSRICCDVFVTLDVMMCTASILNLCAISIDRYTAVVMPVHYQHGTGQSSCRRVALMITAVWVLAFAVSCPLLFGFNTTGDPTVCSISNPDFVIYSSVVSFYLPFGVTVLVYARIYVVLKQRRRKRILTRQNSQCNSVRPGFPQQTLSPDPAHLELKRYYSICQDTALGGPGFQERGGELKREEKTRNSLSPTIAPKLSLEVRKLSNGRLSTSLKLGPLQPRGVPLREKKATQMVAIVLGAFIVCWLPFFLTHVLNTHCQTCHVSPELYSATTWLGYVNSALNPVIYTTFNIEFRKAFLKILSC
Assay type: binding
Method: Cultures were grown as monolayers or in suspension in standard cell culture media. Cells were recovered by scraping (from monolayers) or by centrifugation (from suspension cultures), and were washed two or three times by suspension in phosphate buffered saline followed by collection by centrifugation. Cell pellets were stored frozen at -40°C. Crude cell membranes were prepared by homogenisation followed by high-speed centrifugation, and characterisation of cloned receptors achieved by radioligand binding.
Cell pellets were gently thawed at room temperature, and resuspended in about 20 volumes of ice-cold 50 mM Tris salts (pH 7.4 @ 37°C), 20mM EDTA, 0.2 M sucrose. The suspension was homogenised using an Ultra-Turrax (TM) at full speed for 15 sec. The homogenate was centrifuged at 18,000 r.p.m for 20 min at 4°C in a Sorvall RC5C centrifuge. The membrane pellet was resuspended in ice-cold 50 mM Tris salts (pH 7.4 @ 37°C), using an Ultra-Turrax (TM), and recentrifuged at 18,000 r.p.m for 15 min at 4°C in a Sorvall RC5C. The membranes were washed two more times with ice-cold 50 mM Tris salts (pH 7.4 @ 37°C). The final pellet was resuspended in 50 mM Tris salts (pH 7.4 @ 37°C), and the protein content determined using bovine serum albumin as a standard (Bradford, M. M. (1976) Anal. Biochem. 72, 248-254).
Crude cell membranes were incubated with 0.1 nM [^125I] iodosulpride (∼2000 Ci/mmol; Amersham, U. K.), and the test compound in a buffer containing 50 mM Tris salts (pH 7.4 @ 37°C), 120 mM NaCl, 5 mM KCl, 2 mM CaCl2, 1 mM MgCl2, 0.1% (w/v) bovine serum albumin, in a total volume of 1 ml for 30 min at 37°C. Following incubation with the test compound, samples were filtered using a Brandel Cell Harvester (TM), and washed three times with ice-cold 50 mM Tris salts (pH 7.4 @ 37°C), 120 mM NaCl, 5 mM KCl, 2 mM CaCl2, 1 mM MgCl2. The radioactivity on the filters was measured using a Cobra (TM) gamma counter (Canberra Packard). Non-specific binding was defined as the radioligand binding remaining after incubation in the presence of 100 µM iodosulpride. For competition curves, 14 concentrations (half-log dilutions) of competing cold drug were used.
Competition curves were analysed simultaneously whenever possible using non-linear least-squares fitting procedures, capable of fitting one, two or three site models.

Compound	IC50
CCS(=O)(=O)c1ccc(OC)c(-c2ccc(CN3CCCCCC3c3ccccc3)[nH]2)c1 (racemic) [Example 3, 2-(5-Ethylsulphonyl-2-methoxyphenyl)-5-(1-(2-(R,S)-phenylazacycloheptyl)-methyl)-1H-pyrrole, hydrochloride]	1 to 50 nM
CCS(=O)(=O)c1ccc(OC)c(-c2ccc(CN3CCCCC[C@@H]3c3ccccc3)[nH]2)c1 [Example 10, 2-(5-Ethylsulphonyl-2-methoxyphenyl)-5-(1-(2-(R)-phenylazacycloheptyl)methyl)-1H-pyrrole, oxalate]	1 to 50 nM
CCS(=O)(=O)c1cc(Br)c(OC)c(-c2ccc(CN3CCCCCC3c3ccccc3)[nH]2)c1 (racemic) [Example 6, 2-(3-Bromo-5-ethylsulphonyl-2-methoxyphenyl)-5-(1-(2-(R,S)-phenylazacycloheptyl)methyl)-1H-pyrrole, hydrochloride]	1 to 50 nM

Continued, values first:

IC50	Compound
1 to 50 nM	CCS(=O)(=O)c1ccc(OC)c(-c2ccc(CN3CCCCC[C@H]3c3ccccc3)[nH]2)c1 [Example 11, 2-(5-Ethylsulphonyl-2-methoxyphenyl)-5-(1-(2-(S)-phenylazacycloheptyl)methyl)-1H-pyrrole, oxalate]
1 to 50 nM	COc1ccc(S(=O)(=O)N2CCOCC2)cc1-c1ccc(CN2CCCCC[C@@H]2c2ccccc2)[nH]1 [Example 13, 2-(2-Methoxy-5-(4-morpholinyl)sulphonylphenyl)-5-(1-(2-(R)-phenylazacycloheptyl)methyl)-1H-pyrrole, oxalate]
